# Results published in patent US11370841B2, “Methods of treating fibroblast growth factor 19-mediated cancers and tumors” (NGM Biopharmaceuticals, Inc., priority 2016, dated 2022).
# How the values were obtained:
# [1] = system: FGF19-induced HCC; assay: Tumorigenicity study in IL-6-deficient mice; assay type: in vivo; settings: both Il6+/+ and Il6-/- mice, AAV-expressed FGF19
# Experimental: (§1) Histology and immunohistochemistry. […] Hematoxylin and eosin staining was performed using standard methods. […] When indicated, sections were counterstained with hematoxylin.
# Tumorigenicity study in IL-6-deficient mice. Il6^−/− mice were backcrossed to C57BL/6 mice for at least nine generations. Age and gender-matched wild type C57BL6 mice were used as Il6^+/+ controls. […] Body weight, body composition, and blood glucose were measured at designated times. Mice were euthanized 52 weeks post-AAV administration for liver tumor assessment.
# [2] = system: FGF19-mediated HCC; assay: Anti-IL-6 treatment in Mdr2-/- mice expressing AAV-FGF19; assay type: in vivo; settings: prolonged expression of FGF19
# Experimental: Blood parameters. […] Serum insulin was assessed with ELISA kits from ALPCO. […] All assays were performed according to the manufacturers' instructions.
# as §1
# Anti-IL-6 treatment in Mdr2^−/− mice. […] Anti-IL-6 treatment started 14 weeks after AAV injection. Mice were dosed with anti-mouse IL-6 antibody (Bio-X-Cell) or an isotype control antibody (Bio-X-Cell) once weekly i.p. at 10 mg/kg for a total of 10 doses. Mice were euthanized 24 weeks post-AAV administration for liver tumor assessment. When indicated, Mdr2^−/− mice injected with AAV-GFP serve as controls for evaluating serum levels of liver enzymes.
# [3] = system: primary mouse hepatocytes; assay: In vitro pSTAT3 activation in primary mouse hepatocytes; assay type: cell-based
# Experimental: Primary mouse hepatocytes were isolated from 8-10 week old wild type mice (BioReclamation/IVT). Cells were diluted in attachment media, and cells were plated on collagen-coated 6-well plate (Becton Dickinson). Four hours later, cells were changed into M199 media supplemented with 10% FBS, 2 mM glutamine, 100 unit/ml penicillin, 100 unit/ml streptomycin, and cultured for 16 hours at 37° C. When indicated, 50 ng/ml FGF19 protein or 50 ng/ml mouse IL-6 (Peprotech) were added.
# Cell extracts were prepared in 50 mM Tris-Cl, PH 7.2, 150 mM NaCl, 1% NP-40, 0.1% SDS, 0.5% sodium deoxycholate supplemented with a protease inhibitor cocktail (Roche) and phosphatase inhibitors (Sigma, phosphatase inhibitor cocktail set 2 and set 3), and protein concentrations were determined by BCA protein assay (Thermo Scientific).
# Immunoblotting. Cell or tissue lysates were mixed with 4×SDS sample loading buffer (50 mM Tris-Cl, pH6.8, 2.5% SDS, urea, 4% β-mercaptoethanol), heated for 10 minutes at 95° C., and separated on 4-20% SDS-polyacrylamide gels (Life Technologies) in 1×MOPS running buffer. Proteins were transferred onto PVDF membranes (GE Healthcare). Membranes were blocked in TBST buffer (20 mM Tris-Cl, pH 7.6, 137 mM NaCl, 0.1% Tween-20) containing 5% non-fat dry milk for 1 hour at room temperature, and incubated with anti-pSTAT3^Y705, anti-total STAT3, anti-pERK, anti-total ERK, or anti-β-actin antibodies in blocking buffer at 4° C. overnight. Membranes were washed in TBST extensively, and bound proteins were detected with horseradish peroxidase-conjugated goat-anti-mouse IgG or goat-anti-rabbit IgG antibodies (GE Healthcare) for 1 hour at room temperature. […]
# To investigate an in vitro direct effect of FGF19 on STAT3 activation in isolated hepatocytes, pSTAT3^Y705 levels in primary cultures of hepatocytes upon FGF19 stimulation were analyzed by western blotting. […] Cell lysates were prepared at the indicated time points following FGF19 stimulation and analyzed for phosphorylation of the various proteins.
# [4] = system: FGF19-mediated hepatocellular carcinoma; assay: AAV-FGF19 tumorigenicity and metabolic study in Stat3f/f and Stat3ΔHep mice; settings: for Reduction in hepatic mRNA levels of Cyp7a1 / Reduction in hepatic mRNA levels of Cyp8b: AAV-expressed FGF19, 12 months
# Experimental: Hepatocyte-specific Stat3 deletion. […] Stat3^f/f mice injected with AAV-TBG-Cre alone served as Stat3^ΔHep controls. Stat3^f/f mice were used as wild type controls. AAV-TBG-Cre drives Cre recombinase expression under TBG promoter, which allows hepatocyte-specific expression.
# 52 weeks after AAV injection, mice were euthanized and examined for liver tumor formation. The maximum diameter of liver tumor nodules in each mouse was measured with a caliper and total numbers of tumor nodules per liver were recorded. Livers were weighed and collected for histological examination or gene expression analysis.
# Glucose and body composition. Blood concentrations of ad libitum fed glucose were measured in conscious animals from a hand-held glucometer (Accu-check, Roche Diagnostics) using tail vein blood. Body weight and body composition (EcoMRI whole body composition analyzer) were measured at designated times. Mice were euthanized 52 weeks post-AAV administration. Macroscopic liver tumors were counted and the maximal diameter of the tumors recorded.
# Gene expression analysis.
# Blood parameters. Blood was collected from tail vein in un-anesthetized animals using microvette serum gel tubes (Sarstedt) for measurements of glucose, insulin, ALT, AST, ALP, bile acids, and FGF19 concentrations. Serum samples were prepared by centrifugation at 4° C. for 10 minutes at 6000 g after clotting at room temperature for 30 minutes. For HbA1c measurements, whole blood was collected after euthanasia by cardiac puncture into EDTA-tubes and quickly inverted multiple times. HbA1c (from whole blood samples) and liver enzyme (from serum samples) levels were measured on Cobas Integra 400 Clinical Analyzer (Roche Diagnostics). Serum FGF19 level was determined by FGF19 enzyme-linked immunosorbent assays (ELISA) (Biovendor). Serum insulin was assessed with ELISA kits from ALPCO. Concentrations of total bile acids in serum were determined using a 3β-hydroxysteroid dehydrogenase method (Diazyme). All assays were performed according to the manufacturers' instructions.
# Histology and immunohistochemistry. Livers were fixed in 10% neutral-buffered formalin and embedded in paraffin. 5 μm sections were deparaffinized in xylenes, rehydrated sequentially in graded ethanol (100%, 95%, 80%, 70%, 50%, 2 minutes each). Hematoxylin and eosin staining was performed using standard methods. For immunohistochemical studies, liver sections were subjected to antigen retrieval in a citrate-based Antigen Unmasking Solution (Vector Laboratories), and incubated for 30 minutes with 3% H2O2 at room temperature to block endogenous peroxidase activity. Sections were stained with primary antibodies against glutamine synthetase (Thermo Fisher), BrdU, PCNA, or STAT3 in PBS containing 10% goat serum. Biotinylated secondary antibodies, ABC-HRP reagent (Vectastain ABC kit, #PK-6100, Vector Laboratories) and di-amine-benzidine (DAB) colorimetric peroxidase substrate (#SK-4100, Vector Laboratories) were used for detection. When indicated, sections were counterstained with hematoxylin. Digital imaging microscopy was performed using a Leica DM4000 microscope equipped with DFC500 camera and a scanning platform (Leica). Images for the entire liver section were acquired by stitching 70-96 fields together using Surveyor program for morphometric analysis. Glutamine synthetase-positive tumor areas were quantified using Measure/Count/Area tool from ImagePro software.
# [5] = Stat3f/f mice, AAV-expressed FGF19
substance,measurement,setting,value
"FGF19: Fibroblast growth factor 19, mature human 194 amino acid polypeptide (SEQ ID NO: 1); recombinant protein or AAV-expressed",Body fat composition,[1],efficiently reduced
same,Liver tumor formation,[2],induced liver tumor formation
same,STAT3 phosphorylation (pSTAT3 Y705) by western blotting,"[3]; isolated mouse hepatocytes, 50 ng/ml",did not enhance STAT3 phosphorylation
same,Phosphorylation of ERK1 and ERK2,[3]; primary cultures of mouse hepatocytes,apparent
same,Body weight,[4]; [5],weight-lowering
same,Glucose,[4]; [5],glucose-lowering
same,Reduction in hepatic mRNA levels of Cyp7a1,[4]; Stat3f/f mice,77%
same,Reduction in hepatic mRNA levels of Cyp8b,[4]; Stat3f/f mice,95%
same,Reduction in hepatic mRNA levels of Cyp7a1,[4]; Stat3ΔHep mice,87%
same,Reduction in hepatic mRNA levels of Cyp8b,[4]; Stat3ΔHep mice,88%
